Reference: PubChem BioAssay AID2060895 (Molecular Pharmacology Branch, DTP, NCI, 2025)

Tested on: PDC 899932-113-R3-J6 complex spheroid viability
Test: Anticancer human tumor 899932-113-R3-J6-PDC patient-derived melanoma cell line growth inhibition [RAS]
Conditions: for viability, T/C: stronger effect = lower value
Summary of the method: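 Tumour cells grown as complex spheroids with HUVEC endothelial cells and mesenchymal stem cells, treated with RAS pathway inhibitor combinations. Each agent spans half-log steps from near clinical Cmax, or 10 microM where Cmax is unknown.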

[1] = curve of first compound, second compound 0.0316 µM
[2] = curve of first compound, second compound 0.1 µM
[3] = curve of first compound, second compound 0.316 µM
[4] = curve of first compound, second compound 1 µM
[5] = second compound 0.0316 µM, first compound 0.00316 µM
[6] = second compound 0.0316 µM, first compound 0.01 µM
[7] = second compound 0.0316 µM, first compound 0.0316 µM
[8] = second compound 0.0316 µM, first compound 0.1 µM
[9] = second compound 0.0316 µM, first compound 0.316 µM
[10] = second compound 0.0316 µM, first compound 1 µM
[11] = second compound 0.1 µM, first compound 0.00316 µM
[12] = second compound 0.1 µM, first compound 0.01 µM
[13] = second compound 0.1 µM, first compound 0.0316 µM
[14] = second compound 0.1 µM, first compound 0.1 µM
[15] = second compound 0.1 µM, first compound 0.316 µM
[16] = second compound 0.1 µM, first compound 1 µM
[17] = second compound 0.316 µM, first compound 0.00316 µM
[18] = second compound 0.316 µM, first compound 0.01 µM
[19] = second compound 0.316 µM, first compound 0.0316 µM
[20] = second compound 0.316 µM, first compound 0.1 µM
[21] = second compound 0.316 µM, first compound 0.316 µM
[22] = second compound 0.316 µM, first compound 1 µM
[23] = second compound 1 µM, first compound 0.00316 µM
[24] = second compound 1 µM, first compound 0.01 µM
[25] = second compound 1 µM, first compound 0.0316 µM
[26] = second compound 1 µM, first compound 0.1 µM
[27] = second compound 1 µM, first compound 0.316 µM
[28] = second compound 1 µM, first compound 1 µM
[29] = curve of first compound, second compound 3.16 µM
[30] = curve of first compound, second compound 10 µM
[31] = second compound 3.16 µM, first compound 0.0316 µM
[32] = second compound 3.16 µM, first compound 0.1 µM
[33] = second compound 10 µM, first compound 0.0316 µM
[34] = second compound 10 µM, first compound 0.1 µM
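For viability, T/C in this document: spheroids exposed to agents for seven days before readout; 100% = DMSO vehicle control wells.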

## O=C(c1ccc(F)c(F)c1Nc1ccc(I)cc1F)N1CC(O)([C@@H]2CCCCN2)C1 + C=CC(=O)N1CCN(c2nc(OCC3CCCN3C)nc3c(F)c(-c4nc(N)cc(C)c4C(F)(F)F)c(Cl)cc23)C(C)C1
Curve of first compound, second compound 0.00316 µM
  IC50: 5.71 nM
Curve of first compound, second compound 0.01 µM
  IC50: 6.26 nM
[1]
  IC50: 6.75 nM
[2]
  IC50: 8.47 nM
[3]
  IC50: 7.95 nM
[4]
  IC50: 8.43 nM
Second compound 0.00316 µM, first compound 0.00316 µM
  viability, T/C: 71.1%
Second compound 0.00316 µM, first compound 0.01 µM
  viability, T/C: 30%
Second compound 0.00316 µM, first compound 0.0316 µM
  viability, T/C: 6.25%
Second compound 0.00316 µM, first compound 0.1 µM
  viability, T/C: 3.24%
Second compound 0.00316 µM, first compound 0.316 µM
  viability, T/C: 1.5%
Second compound 0.00316 µM, first compound 1 µM
  viability, T/C: 0.84%
Second compound 0.01 µM, first compound 0.00316 µM
  viability, T/C: 74.8%
Second compound 0.01 µM, first compound 0.01 µM
  viability, T/C: 33%
Second compound 0.01 µM, first compound 0.0316 µM
  viability, T/C: 5.84%
Second compound 0.01 µM, first compound 0.1 µM
  viability, T/C: 2.5%
Second compound 0.01 µM, first compound 0.316 µM
  viability, T/C: 1.9%
Second compound 0.01 µM, first compound 1 µM
  viability, T/C: 0.68%
[5]
  viability, T/C: 81.8%
[6]
  viability, T/C: 33.5%
[7]
  viability, T/C: 7.48%
[8]
  viability, T/C: 2.48%
[9]
  viability, T/C: 1.88%
[10]
  viability, T/C: 0.72%
[11]
  viability, T/C: 73.9%
[12]
  viability, T/C: 46%
[13]
  viability, T/C: 7.56%
[14]
  viability, T/C: 2.66%
[15]
  viability, T/C: 1.89%
[16]
  viability, T/C: 1.02%
[17]
  viability, T/C: 74.5%
[18]
  viability, T/C: 43.9%
[19]
  viability, T/C: 9.69%
[20]
  viability, T/C: 2.51%
[21]
  viability, T/C: 1.92%
[22]
  viability, T/C: 0.96%
[23]
  viability, T/C: 72.8%
[24]
  viability, T/C: 46%
[25]
  viability, T/C: 7.46%
[26]
  viability, T/C: 3.39%
[27]
  viability, T/C: 1.9%
[28]
  viability, T/C: 1.15%

## CC(C)n1nc(-c2ccc3oc(N)nc3c2)c2c(N)ncnc21 + C#Cc1c(F)ccc2cc(O)cc(-c3ncc4c(N5CC6CCC(C5)N6)nc(OCC56CCCN5CC(F)C6)nc4c3F)c12
[1]
  IC50: 90.3 nM
[2]
  IC50: > 100 nM
[3]
  IC50: > 100 nM
[4]
  IC50: > 100 nM
[29]
  IC50: > 100 nM
[30]
  IC50: > 100 nM
Second compound 0.0316 µM, first compound 0.000316 µM
  viability, T/C: 104%
Second compound 0.0316 µM, first compound 0.001 µM
  viability, T/C: 100%
[5]
  viability, T/C: 105%
[6]
  viability, T/C: 91.8%
[7]
  viability, T/C: 68.2%
[8]
  viability, T/C: 48.1%
Second compound 0.1 µM, first compound 0.000316 µM
  viability, T/C: 114%
Second compound 0.1 µM, first compound 0.001 µM
  viability, T/C: 105%
[11]
  viability, T/C: 95.7%
[12]
  viability, T/C: 100%
[13]
  viability, T/C: 73.4%
[14]
  viability, T/C: 52.5%
Second compound 0.316 µM, first compound 0.000316 µM
  viability, T/C: 103%
Second compound 0.316 µM, first compound 0.001 µM
  viability, T/C: 97.6%
[17]
  viability, T/C: 115%
[18]
  viability, T/C: 100%
[19]
  viability, T/C: 76.4%
[20]
  viability, T/C: 50%
Second compound 1 µM, first compound 0.000316 µM
  viability, T/C: 104%
Second compound 1 µM, first compound 0.001 µM
  viability, T/C: 104%
[23]
  viability, T/C: 110%
[24]
  viability, T/C: 96.5%
[25]
  viability, T/C: 75%
[26]
  viability, T/C: 52.4%
Second compound 3.16 µM, first compound 0.000316 µM
  viability, T/C: 116%
Second compound 3.16 µM, first compound 0.001 µM
  viability, T/C: 128%
Second compound 3.16 µM, first compound 0.00316 µM
  viability, T/C: 118%
Second compound 3.16 µM, first compound 0.01 µM
  viability, T/C: 112%
[31]
  viability, T/C: 85.9%
[32]
  viability, T/C: 51.6%
Second compound 10 µM, first compound 0.000316 µM
  viability, T/C: 115%
Second compound 10 µM, first compound 0.001 µM
  viability, T/C: 110%
Second compound 10 µM, first compound 0.00316 µM
  viability, T/C: 123%
Second compound 10 µM, first compound 0.01 µM
  viability, T/C: 115%
[33]
  viability, T/C: 85.8%
[34]
  viability, T/C: 50.7%

## CC1(C)CCC(Nc2ncc(C(F)(F)F)c(-c3c[nH]c4c(P(C)(C)=O)c(C#N)ccc34)n2)CN1 (stereo not drawn)
Compound 0.000949 µM
  viability, T/C: 98.3% [middle of 4 runs]
Compound 0.003 µM
  viability, T/C: 75.5% [middle of 4 runs]
Compound 0.00949 µM
  viability, T/C: 53.9% [middle of 4 runs]
Compound 0.03 µM
  viability, T/C: 44.4% [middle of 4 runs]
Compound 0.0949 µM
  viability, T/C: 18.4% [middle of 4 runs]
Compound 0.3 µM
  viability, T/C: 12.9% [middle of 4 runs]
Curve of compound
  IC50: 15 nM [middle of 4 runs]

## CCC(CC)c1cc(NC2CCC(N)C2)n2nccc2n1 (stereo not drawn) + C#Cc1c(F)ccc2cc(O)cc(-c3ncc4c(N5CC6CCC(C5)N6)nc(OCC56CCCN5CC(F)C6)nc4c3F)c12
[1]
  IC50: 1690 nM
[2]
  IC50: 1640 nM
[3]
  IC50: 1660 nM
[4]
  IC50: 1740 nM
[29]
  IC50: 1790 nM
[30]
  IC50: 1720 nM
[7]
  viability, T/C: 96.8%
[8]
  viability, T/C: 91.5%
[9]
  viability, T/C: 103%
[10]
  viability, T/C: 91.5%
Second compound 0.0316 µM, first compound 3.16 µM
  viability, T/C: 0.88%
Second compound 0.0316 µM, first compound 10 µM
  viability, T/C: 0.24%
[13]
  viability, T/C: 104%
[14]
  viability, T/C: 104%
[15]
  viability, T/C: 92.9%
[16]
  viability, T/C: 87.3%
Second compound 0.1 µM, first compound 3.16 µM
  viability, T/C: 0.78%
Second compound 0.1 µM, first compound 10 µM
  viability, T/C: 0.23%
[19]
  viability, T/C: 107%
[20]
  viability, T/C: 93.9%
[21]
  viability, T/C: 98.5%
[22]
  viability, T/C: 88.3%
Second compound 0.316 µM, first compound 3.16 µM
  viability, T/C: 0.84%
Second compound 0.316 µM, first compound 10 µM
  viability, T/C: 0.9%
[25]
  viability, T/C: 112%
[26]
  viability, T/C: 112%
[27]
  viability, T/C: 120%
[28]
  viability, T/C: 95.2%
Second compound 1 µM, first compound 3.16 µM
  viability, T/C: 1.22%
Second compound 1 µM, first compound 10 µM
  viability, T/C: 0.22%
[31]
  viability, T/C: 103%
[32]
  viability, T/C: 107%
Second compound 3.16 µM, first compound 0.316 µM
  viability, T/C: 107%
Second compound 3.16 µM, first compound 1 µM
  viability, T/C: 100%
Second compound 3.16 µM, first compound 3.16 µM
  viability, T/C: 0.97%
Second compound 3.16 µM, first compound 10 µM
  viability, T/C: 0.24%
[33]
  viability, T/C: 116%
[34]
  viability, T/C: 105%
Second compound 10 µM, first compound 0.316 µM
  viability, T/C: 105%
Second compound 10 µM, first compound 1 µM
  viability, T/C: 94.2%
Second compound 10 µM, first compound 3.16 µM
  viability, T/C: 0.5%
Second compound 10 µM, first compound 10 µM
  viability, T/C: 0.27%
